In patent publication US9586957B2, “2-keto amide derivatives as HIV attachment inhibitors” (priority 2013, dated 2017):
Where two headings read alike, the source gives them in different places.

Tested on: HIV-1 LAI
Assay: Single-round infectious HIV-1 LAI envelope luciferase reporter virus infection of MT2 cells
Format: cell-based
Settings: Human immunodeficiency virus 1, MT2, 72 h
From the text: • Virus production—Human embryonic Kidney cell line, 293T (HEK 293T), was propagated in Dulbecco's Modified Eagle Medium (Invitrogen, Carlsbad, Calif.) containing 10% fetal bovine serum (FBS, Sigma, St. Louis, Mo.). The human T-cell leukemia cell MT2 (AIDS Research and Reference Reagent Program, Cat. 237) was propagated in RPMI 1640 (Invitrogen, Carlsbad, Calif.) containing 10% fetal bovine serum (FBS, Hyclone, Logan, Utah) • Virus infection—Single-round infectious reporter virus was produced by co-transfecting HEK 293T cells with plasmide expressing the HIV-1 LAI envelope along with a plasmid containing an HIV-1 LAI proviral cDNA with the envelope gene replaced by a firefly luciferase reporter gene (Chen et al., Ref 41). Transfections were performed using lipofectAMINE PLUS reagent as described by the manufacturer (Invitrogen, Carlsbad, Calif.). Experimental Procedure • 1. MT2 cells were plated in black, 384 well plates at a cell density of 5×10^3 cells per well in 25 μl RPMI 1640 containing 10% FBS. • 2. Compound (diluted in dimethylsulfoxide and growth medium) was added to cells at 12.5 μl/well, so that the final assay concentration would be ≦50 nM. • 3. 12.5 μl of single-round infectious reporter virus in Dulbecco's Modified Eagle
Medium was added to the plated cells and compound at an approximate multiplicity of infection (MOI) of 0.01, resulting in a final volume of 50 μl per well. • 4. Virus-infected cells were incubated at 37 degrees Celsius in a CO2 incubator and harvested 72 h after infection. • 5. Viral infection was monitored by measuring luciferase expression in the infected cells using a luciferase reporter gene assay kit (Steady-Glo, Promega, Madison, Wis.) as described by the manufacturer. Luciferase activity was then quantified by measuring luminescence using an EnVision Multilabel Plate Readers (PerkinElmer, Waltham, Mass.). • 6. The percent inhibition for each compound was calculated by quantifying the level of luciferase expression in cells infected in the presence of each compound as a percentage of that observed for cells infected in the absence of compound and subtracting such a determined value from 100. • 7. An EC50 provides a method for comparing the antiviral potency of the compounds of the invention. The effective concentration for fifty percent inhibition (EC50) was calculated with the Microsoft Excel Xlfit curve fitting software. For each compound, curves were generated from percent inhibition calculated at 10 different concentrations by using a four parameter logistic model (model 205). Table 1 is the key for the data in Table 2.

[1] = read-out: EC50 Group from Table 1

Row | SMILES | EC50 [nM] | EC50 [1] [nM]
1 | O=C(C(=O)N1CCC(c2ccccc2)C1)c1c[nH]c2c(-n3ccnn3)ncc(F)c12 (centres unmarked) [Compound 1001] | 38.1 | < 500
2 | O=C(C(=O)N1CCC[C@H](c2ccccc2)C1)c1c[nH]c2c(-n3ccnn3)ncc(F)c12 [Compound 1002] | – | < 500
3 | O=C(C(=O)N1CCCC(c2ccc(Cl)cc2)C1)c1c[nH]c2c(-n3ccnn3)ncc(F)c12 (centres unmarked) [Compound 1003] | – | > 500
4 | O=C(C(=O)N1CCCC(c2cccc(F)c2)C1)c1c[nH]c2c(-n3ccnn3)ncc(F)c12 (centres unmarked) [Compound 1004] | – | > 500
5 | O=C(C(=O)N1CCCC(Cc2ccccc2)C1)c1c[nH]c2c(-n3ccnn3)ncc(F)c12 (centres unmarked) [Compound 1005] | – | > 500
6 | O=C(C(=O)N1CCCC(c2ccccc2)CC1)c1c[nH]c2c(-n3ccnn3)ncc(F)c12 (centres unmarked) [Compound 1006] | – | < 500
7 | O=C(C(=O)N1CCC(Nc2ccccc2)C1)c1c[nH]c2c(-n3ccnn3)ncc(F)c12 (centres unmarked) [Compound 1007] | – | < 500
8 | COc1cnc(-n2cnc(C)n2)c2[nH]cc(C(=O)C(=O)N3CCC(=C(C#N)c4ccccc4)C3)c12 [Compound 1008] | 18.9 | < 500
9 | O=C(C(=O)N1CCC(Oc2ccccc2)CC1)c1c[nH]c2c(-n3ccnn3)ncc(F)c12 [Compound 1009] | – | < 500
10 | O=C(C(=O)N1CCC(Nc2ccccc2)CC1)c1c[nH]c2c(-n3ccnn3)ncc(F)c12 [Compound 1010] | 41.8 | < 500
11 | CCC(=O)N(c1ccccc1)C1CCN(C(=O)C(=O)c2c[nH]c3c(-n4ccnn4)ncc(F)c23)CC1 [Compound 1011] | – | < 500
12 | COc1ccnc2[nH]cc(C(=O)C(=O)N3CCC(Oc4ccccc4)CC3)c12 [Compound 1012] | – | < 500
13 | COc1ncc(OC)c2c(C(=O)C(=O)N3CCC(Oc4ccccc4)CC3)c[nH]c12 [Compound 1013] | – | > 500
14 | COc1ccnc2[nH]cc(C(=O)C(=O)N3CCC(Oc4ccc(Cl)cc4)CC3)c12 [Compound 1014] | 757 | > 500
15 | COc1ncc(OC)c2c(C(=O)C(=O)N3CCC(Oc4ccc(Cl)cc4)CC3)c[nH]c12 [Compound 1015] | – | > 500
16 | O=C(C(=O)N1CCCC(Oc2ccccc2)C1)c1c[nH]c2cccc(F)c12 (centres unmarked) [Compound 1016] | – | > 500
17 | NC(=O)C1(Nc2ccccc2)CCN(C(=O)C(=O)c2c[nH]c3ccccc23)CC1 [Compound 1017] | – | > 500
18 | O=C(C(=O)N1CCC(Nc2cccc(S(=O)(=O)C(F)(F)F)c2)CC1)c1c[nH]c2ccccc12 [Compound 1018] | – | > 500
19 | O=C(C(=O)N1CCC(c2cccc(C(F)(F)F)c2)C(O)C1)c1c[nH]c2ccccc12 (centres unmarked) [Compound 1019] | – | > 500
20 | COc1ccc(OC2CN(C(=O)C(=O)c3c[nH]c4c(-n5ccnn5)ncc(F)c34)C2)cc1 [Compound 1020] | – | < 500
21 | COc1cnc(-n2cnc(C)n2)c2[nH]cc(C(=O)C(=O)N3CCc4ncn(-c5ccccc5)c4CC3)c12 [Compound 2001] | 0.09 | < 500
22 | COc1cnc(-n2cnc(C)n2)c2[nH]cc(C(=O)C(=O)N3CCc4nn(-c5ccccc5)cc4C3)c12 [Compound 2002] | 0.92 | < 500
23 | COc1cnc(-n2cnc(C)n2)c2[nH]cc(C(=O)C(=O)N3Cc4nn(-c5ccccc5)c(N)c4C3)c12 [Compound 2003] | – | < 500
